Data taken from US7109193B2, “Tricyclic diazepines tocolytic oxytocin receptor antagonists” (Wyeth, priority 2001, dated 2006).

Biological target: T1, human vasopressin V1a receptor subtype (Homo sapiens, UniProt P37288)
T1 construct: host or cells: CHO cells (pZeoSV vector for the Thibonnier line)
Assay: Vasopressin binding in Chinese Hamster Ovary cell membranes expressing human vasopressin V1a subtype receptors
Details: 100 nM, CHO cell membranes, [3H]Manning ligand, values without parentheses
Procedure, shortened: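 Membranes from CHO cells expressing human V1a receptor were incubated with [3H]Manning ligand (added as 20 μL of 8 nM) in pH 7.4 Tris buffer with MgCl2, BSA and protease inhibitors, 60 min at room temperature. Bound radioactivity was counted after filtration; values are percent inhibition at a stated concentration or IC50.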

T1 sequence (P37288 whole entry): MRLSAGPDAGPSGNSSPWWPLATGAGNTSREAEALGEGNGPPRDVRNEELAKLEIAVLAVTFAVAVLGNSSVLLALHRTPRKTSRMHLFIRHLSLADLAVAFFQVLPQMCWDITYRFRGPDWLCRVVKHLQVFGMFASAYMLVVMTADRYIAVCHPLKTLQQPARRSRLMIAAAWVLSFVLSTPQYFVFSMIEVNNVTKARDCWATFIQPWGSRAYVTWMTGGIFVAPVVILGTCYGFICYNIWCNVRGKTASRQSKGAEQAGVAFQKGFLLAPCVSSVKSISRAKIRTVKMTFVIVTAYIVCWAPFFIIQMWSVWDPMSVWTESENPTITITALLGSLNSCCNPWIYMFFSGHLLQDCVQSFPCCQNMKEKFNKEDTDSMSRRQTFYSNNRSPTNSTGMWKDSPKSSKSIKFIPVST

## COc1cc(C(=O)N2Cc3ccc(C(=O)N(C)C4CCN(C)CC4)n3Cc3ccccc32)ccc1-c1ccccc1C [Example 179, 10-[(2-Methoxy-2′-methyl[1,1′-biphenyl]-4-yl)carbonyl]-N-methyl-N-(1-methyl-4-piperidinyl)-10,11-dihydro-5H-pyrrolo[2,1-c][1,4]benzodiazepine-3-carboxamide]
  inhibition at 0.1 µM: 73%

## COc1ccccc1-c1ccc(C(=O)N2Cc3ccc(C(=O)NCCC4CCCN4C)n3Cc3ccccc32)cc1C (stereo not shown) [Example 162, 10-[(2′-Methoxy-2-methyl[1,1′-biphenyl]-4-yl)carbonyl]-N-[2-(1-methyl-2-pyrrolidinyl)ethyl]-10,11-dihydro-5H-pyrrolo[2,1-c][1,4]benzodiazepine-3-carboxamide]
  inhibition at 0.1 µM: 18%

## COc1cc(C(=O)N2Cc3ccc(C(=O)N4CCN(CCN5CCOCC5)CC4)n3Cc3ccccc32)ccc1-c1ccccc1C [Example 210, {10-[(2-Methoxy-2′-methyl[1,1′-biphenyl]-4-yl)carbonyl]-10,11-dihydro-5H-pyrrolo[2,1-c][1,4]benzodiazepin-3-yl}{4-[2-(4-morpholinyl)ethyl]-1-piperazinyl}methanone]
  inhibition at 0.1 µM: 39%

## CN1CCCC1CCNC(=O)c1ccc2n1Cc1ccccc1N(C(=O)c1ccc(-c3cccc4ccccc34)cc1Cl)C2 (stereo not shown) [Example 173, 10-[2-Chloro-4-(1-naphthyl)benzoyl]-N-[2-(1-methyl-2-pyrrolidinyl)ethyl]-10,11-dihydro-5H-pyrrolo[2,1-c][1,4]benzodiazepine-3-carboxamide]
  inhibition at 0.1 µM: 0%

## C=CCN1CCN(C(=O)c2ccc3n2Cc2ccccc2N(C(=O)c2ccc(-c4cccc(OC)c4)c(C)c2)C3)CC1 [Example 223, (4-Allyl-1-piperazinyl){10-[(3′-methoxy-2-methyl[1,1′-biphenyl]-4-yl)carbonyl]-10,11-dihydro-5H-pyrrolo[2,1-c][1,4]benzodiazepin-3-yl}methanone]
  inhibition at 0.1 µM: 12%

## Cc1ccccc1-c1ccc(C(=O)N2Cc3ccc(C(=O)N4CCN(CCN5CCOCC5)CC4)n3Cc3ccccc32)cc1C [Example 218, {10-[(2,2′-Dimethyl[1,1′-biphenyl]-4-yl)carbonyl]-10,11-dihydro-5H-pyrrolo[2,1-c][1,4]benzodiazepin-3-yl}{4-[2-(4-morpholinyl)ethyl]-1-piperazinyl}methanone]
  inhibition at 0.1 µM: 45%

## C=CCN1CCN(C(=O)c2ccc3n2Cc2ccccc2N(C(=O)c2ccc(-c4cccc(OC)c4)c(OC)c2)C3)CC1 [Example 228, (4-Allyl-1-piperazinyl){10-[(2,3′-dimethoxy[1,1′-biphenyl]-4-yl)carbonyl]-10,11-dihydro-5H -pyrrolo[2,1-c][1,4]benzodiazepin-3-yl}methanone]
  inhibition at 0.1 µM: 22%

## Cc1ccccc1-c1ccc(C(=O)N2Cc3ccc(C(=O)N4CCN(C(C)C)CC4)n3Cc3ccccc32)cc1C [Example 233, {10-[(2,2′-Dimethyl[1,1′-biphenyl]-4-yl)carbonyl]-10,11-dihydro-5H-pyrrolo[2,1-c][1,4]benzodiazepin-3-yl}(4-isopropyl-1-piperazinyl)methanone]
  inhibition at 0.1 µM: 31%

## COc1ccccc1-c1ccc(C(=O)N2Cc3ccc(C(=O)N4CCN(C(C)C)CC4)n3Cc3ccccc32)cc1C [Example 232, (4-Isopropyl-1-piperazinyl){10-[(2′-methoxy-2-methyl[1,1′-biphenyl]-4-yl)carbonyl]-10,11-dihydro-5H-pyrrolo[2,1-c][1,4]benzodiazepin-3-yl}methanone]
  inhibition at 0.1 µM: 13%

## Cc1ccccc1-c1ccc(C(=O)N2Cc3ccc(C(=O)N(C)C4CCN(C)CC4)n3Cc3ccccc32)cc1 [Example 178, N-Methyl-10-[(2′-methyl[1,1′-biphenyl]-4-yl)carbonyl]-N-(1-methyl-4-piperidinyl)-10,11-dihydro-5H-pyrrolo[2,1-c][1,4]benzodiazepine-3-carboxamide]
  inhibition at 0.1 µM: 79%

## COc1ccccc1-c1ccc(C(=O)N2Cc3ccc(C(=O)N4CCN(C(C)C)CC4)n3Cc3ccccc32)cc1OC [Example 241, {10-[(2,2′-Dimethoxy[1,1-biphenyl]4-yl)carbonyl]-10,11-dihydro-5H-pyrrolo[2,1-c][1,4]benzodiazepin-3-yl}(4-isopropyl-1-piperazinyl)methanone]
  inhibition at 0.1 µM: -4%

## COc1cccc(-c2cc(OC)c(C(=O)N3Cc4ccc(C(=O)N5CCN(C(C)C)CC5)n4Cc4ccccc43)cc2Cl)c1 [Example 239, {10-[(6-Chloro-3,3′-dimethoxy[1,1′-biphenyl]-4-yl)carbonyl]-10,11-dihydro-5H-pyrrolo[2,1-c][1,4]benzodiazepin-3-yl}(4-isopropyl-1-piperazinyl)methanone]
  inhibition at 0.1 µM: 2%

## C=CCN1CCN(C(=O)c2ccc3n2Cc2ccccc2N(C(=O)c2ccc(-c4cccc5ccccc45)c(OC)c2)C3)CC1 [Example 231, (4-Allyl-1-piperazinyl){10-[3-methoxy-4-(1-naphthyl)benzoyl]-10,11-dihydro-5H -pyrrolo[2,1-c][1,4]benzodiazepin-3-yl}methanone]
  inhibition at 0.1 µM: 7%

## COc1cc(C(=O)N2Cc3ccc(C(=O)NCCC4CCCN4C)n3Cc3ccccc32)ccc1-c1cccc2ccccc12 (stereo not shown) [Example 170, 10-[3-Methoxy-4-(1-naphthyl)benzoyl]-N-[2-(1-methyl-2-pyrrolidinyl)ethyl]-10,11-dihydro-5H-pyrrolo[2,1-c][1,4]benzodiazepine-3-carboxamide]
  inhibition at 0.1 µM: 21%

## COc1cc(-c2ccccc2C)c(Cl)cc1C(=O)N1Cc2ccc(C(=O)N(C)C3CCN(C)C3)n2Cc2ccccc21 (stereo not shown) [Example 190, 10-[(6-Chloro-3-methoxy-2′-methyl[1,1′-biphenyl]-4-yl)carbonyl]-N-methyl-N-(1-methyl-3-pyrrolidinyl)-10,11-dihydro-5H-pyrrolo[2,1-c][1,4]benzodiazepine-3-carboxamide]
  inhibition at 0.1 µM: 40%

## Cc1cc(C(=O)N2Cc3ccc(C(=O)N4CCN(C(C)C)CC4)n3Cc3ccccc32)ccc1-c1ccccc1C(F)(F)F [Example 240, (4-Isopropyl-1-piperazinyl)(10-{[2-methyl-2′-(trifluoromethyl)[1,1′-biphenyl]-4-yl]carbonyl}-10,11-dihydro-5H-pyrrolo[2,1-c][1,4]benzodiazepin-3-yl)methanone]
  inhibition at 0.1 µM: 1%

## COc1cc(C(=O)N2Cc3ccc(C(=O)N4CCN(CCN(C)C)CC4)n3Cc3ccccc32)ccc1-c1ccccc1C [Example 201, {4-[2-(Dimethylamino)ethyl]-1-piperazinyl}{10-[(2-methoxy-2′-methyl[1,1′-biphenyl]-4-yl)carbonyl]-10,11-dihydro-5H-pyrrolo[2,1-c][1,4]benzodiazepin-3-yl}methanone]
  inhibition at 0.1 µM: 43%

## O=C(c1ccc2n1Cc1ccccc1N(C(=O)c1ccc(-c3cccc4ccccc34)cc1Cl)C2)N1CCN(CCN2CCOCC2)CC1 [Example 215, {10-[2-Chloro-4-(1-naphthyl)benzoyl]-10,11-dihydro-5H-pyrrolo[2,1-c][1,4]benzodiazepin-3-yl}{4-[2-(4-morpholinyl)ethyl]-1-piperazinyl}methanone]
  inhibition at 0.1 µM: 5%

## COc1ccccc1-c1ccc(C(=O)N2Cc3ccc(C(=O)N(C)C4CCN(C)CC4)n3Cc3ccccc32)cc1OC [Example 183, 10-[(2,2′-Dimethoxy[1,1′-biphenyl]-4-yl)carbonyl]-N-methyl-N-(1-methyl-4-piperidinyl)-10,11-dihydro-5H-pyrrolo[2,1-c][1,4]benzodiazepine-3-carboxamide]
  inhibition at 0.1 µM: 26%

## C=CCN1CCN(C(=O)c2ccc3n2Cc2ccccc2N(C(=O)c2ccc(-c4ccccc4OC)c(OC)c2)C3)CC1 [Example 227, (4-Allyl-1-piperazinyl){10-[(2,2′-dimethoxy[1,1′-biphenyl]-4-yl)carbonyl]-10,11-dihydro-5H -pyrrolo[2,1-c][1,4]benzodiazepin-3-yl}methanone]
  inhibition at 0.1 µM: 2%

## COc1cc(C(=O)N2Cc3ccc(C(=O)N4CCN(C(C)C)CC4)n3Cc3ccccc32)ccc1-c1cccc2ccccc12 [Example 236, (4-Isopropyl-1-piperazinyl){10-[3-methoxy-4-(1-naphthyl)benzoyl]-10,11-dihydro-5H -pyrrolo[2,1-c][1,4]benzodiazepin-3-yl}methanone]
  inhibition at 0.1 µM: 6%

## COc1cc(-c2ccccc2C)c(Cl)cc1C(=O)N1Cc2ccc(C(=O)N3CCN(CCN4CCOCC4)CC3)n2Cc2ccccc21 [Example 217, {10-[(6-Chloro-3-methoxy-2′-methyl[1,1′-biphenyl]-4-yl)carbonyl]-10,11-dihydro-5H -pyrrolo[2,1-c][1,4]benzodiazepin-3-yl}{4-[2-(4-morpholinyl)ethyl]-1-piperazinyl}methanone]
  inhibition at 0.1 µM: 21%

## COc1ccccc1-c1ccc(C(=O)N2Cc3ccc(C(=O)NCCC4CCCN4C)n3Cc3ccccc32)cc1OC (stereo not shown) [Example 171, 10-[(2,2′-Dimethoxy[1,1′-biphenyl]-4-yl)carbonyl]-N-[2-(1-methyl-2-pyrrolidinyl)ethyl]-10,11-dihydro-5H-pyrrolo[2,1-c][1,4]benzodiazepine-3-carboxamide]
  inhibition at 0.1 µM: 14%

## COc1cccc(-c2ccc(C(=O)N3Cc4ccc(C(=O)N(C)C5CCN(C)C5)n4Cc4ccccc43)cc2C)c1 (stereo not shown) [Example 186, 10-[(3′-Methoxy-2-methyl[1,1′-biphenyl]-4-yl)carbonyl]-N-methyl-N-(1-methyl-3-pyrrolidinyl)-10,11-dihydro-5H-pyrrolo[2,1-c][1,4]benzodiazepine-3-carboxamide]
  inhibition at 0.1 µM: 53%

## COc1cc(-c2ccccc2C(F)(F)F)c(Cl)cc1C(=O)N1Cc2ccc(C(=O)O)n2Cc2ccccc21 [Example 15, 10-{[6-Chloro-3-methoxy-2′-trifluoromethyl-[1,1′-biphenyl]-4-yl]carbonyl}-10,11-dihydro-5H-pyrrolo[2,1-c][1,4]benzodiazepine-3-carboxylic acid]
  inhibition at 0.1 µM: -8%
